Where “and” joins values, the source holds several entries; their conditions need not be identical. Identical values can stand only once. Non-standard residues stand in square brackets, D forms with d. Residues, ends and D or L forms follow the SMILES beside them. *: point of attachment. Dolaproine = CO[C@@H]([C@@H]1CCCN1)[C@@H](C)C(=O)O; Dil = CC[C@H](C)[C@H](NC)[C@@H](CC(=O)O)OC; X1 = C[C@@H](N*)[C@@H](O)c1ccccc1; NMeV = CN[C@H](C(=O)O)C(C)C
System: 4T1-FAP cells
Test: CCK-8 cell viability assay (cytotoxicity of MMAE and NAPC-ADC)
Assay type: cell-based, Mouse
Conditions: 72 hour incubation
Method: Cell viability was assessed using CCK-8 assay. Each experiment was performed in triplicate. To detect cytotoxicity of MMAE and NAPC-ADC, 4T1-FAP cells were seeded at 5×10^4 /mL in 96-well plates in 200 µL rmi-1640 medium containing 10% FBS and 1% penicillin/streptomycin, incubated at 37 °C in a 5% CO2 incubator for 24 hours, then incubated with different concentrations of MMAE and NAPC-ADC for 72 hour, and blank medium containing CCK-8 at a final concentration of 0.5 mg/mL was added. Incubated at 37 °C, 5% CO2 for 2 hours, absorbance was measured at 450 nm. The absorbance of treated cells was compared to that of the control group, whose viability was set at 100%.

With `CC[C@H](C)[C@@H]([C@@H](CC(=O)N1CCC[C@H]1[C@H](OC)[C@@H](C)C(=O)N[C@H](C)[C@@H](O)c1ccccc1)OC)N(C)C(=O)[C@@H](NC(=O)[C@@H](NC)C(C)C)C(C)C` [MMAE] (H-[NMeV]V[Dil][Dolaproine]-X1) the IC50 was < 1.69 nM and 1.69 nM.
